EC50 data for 1 compound are collected here from patent US20230322744A1, “COMPOUNDS AS GLP-1R AGONISTS” (Terns Pharmaceuticals, Inc., priority 2020, published 2023).

For this assay, the target named is wild-type human GLP-1R (Homo sapiens, UniProt P43220). The assay is described as follows: GLP-1R Cell Assay 1 (cAMP Hunter CHO-K1 GLP1R Gs cell line, HitHunter cAMP assay). The assay is classed as cell-based. To be noted: agonist activity, cellular cAMP, CHO-K1 overexpressing human GLP-1R; normalized to Exendin-4; Table 3; no stereo designation = tested as mixture of stereoisomers. The protocol: GLP-1R mediated agonist activity was determined using the cAMP Hunter CHO-K1 GLP1R Gs cell line (DiscoverX, cat #95-0062C2), a stable CHO-K1 derived cell lines overexpressing naturally Gs coupled wild-type human GLP-1R (accession number: NM_002062.3). GLP-1R agonism in this cell line was detected by measuring cellular cAMP levels using the HitHunter cAMP assay kit (cat #90-0075SM2), a homogenous, gain-of-signal competitive immune assay based on Enzyme Fragment Complementation (EFC) technology. In this system cellular cAMP competes with exogenous labeled cAMP (ED-cAMP) for binding to an anti-cAMP antibody. […] The luminescent signal is directly proportional to the amount of cellular cAMP.
For compound testing, cells were seeded in a total volume of 20 μL in white walled, 384-well microplates and incubated at 37° C. prior to compound testing. Prior to compound addition, cell culture media was removed by aspiration and replaced with 15 μL reagent buffer (2:1 HBSS/10 mM HEPES: cAMP XS+Ab reagent). […] Microplates were read on a PerkinElmer Envision instrument. Compound activity was analyzed using CBIS data analysis suite (ChemInnovation). Percent activity was calculated based on duplicate assay runs and normalized to the positive control Exendin-4, a GLP-1R peptide agonist, using the following formula: […]

wild-type human GLP-1R, sequence (P43220 24-463): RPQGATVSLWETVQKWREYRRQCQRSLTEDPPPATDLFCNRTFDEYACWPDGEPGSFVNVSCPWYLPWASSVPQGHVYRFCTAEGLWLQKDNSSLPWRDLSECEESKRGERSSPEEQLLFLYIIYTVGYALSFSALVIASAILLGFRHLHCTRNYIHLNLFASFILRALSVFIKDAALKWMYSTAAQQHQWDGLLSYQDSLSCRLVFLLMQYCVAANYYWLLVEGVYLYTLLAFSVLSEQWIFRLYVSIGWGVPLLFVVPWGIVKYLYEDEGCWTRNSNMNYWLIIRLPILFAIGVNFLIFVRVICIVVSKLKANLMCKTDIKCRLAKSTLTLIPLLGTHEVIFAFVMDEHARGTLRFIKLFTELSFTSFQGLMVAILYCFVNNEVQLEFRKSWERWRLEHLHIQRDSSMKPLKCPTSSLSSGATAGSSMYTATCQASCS

Regarding `CCn1cncc1Cn1c(CN2CC[C@]3(c4cccnc4OCc4ccc(C#N)cc4F)C[C@@H]3C2)nc2ccc(C(=O)O)cc21` (single isomer, unassigned) [Compound 166, 2-((6-(2-((4-cyano-2-fluorobenzyl)oxy)pyridin-3-yl)-3-azabicyclo[4.1.0]heptan-3-yl)methyl)-1-((1-ethyl-1H-imidazol-5-yl)methyl)-1H-benzo[d]imidazole-6-carboxylic acid], the EC50 is 59.4 nM.
